Source: patent publication US12297196B2, “Condensed bicyclic heterocyclic derivatives as pest control agents” (Bayer Aktiengesellschaft, priority 2019, dated 2025)

How the values were obtained:
[1] = log P by HPLC on reversed-phase column (C18), neutral range; assay type: physicochemical; conditions: ammonium carbonate in water / acetonitrile
Method: The log P values were determined according to EEC Directive 79/831 Annex V.A8 by HPLC (high-performance liquid chromatography) on a reversed-phase column (C18) using the following methods: ^[b] The log P value is determined by LC-UV measurement in the neutral range using 79 mg/l ammonium carbonate in water and acetonitrile as mobile phases (linear gradient from 10% acetonitrile to 95% acetonitrile). Calibration was carried out using a homologous series of straight-chain alkan-2-ones (having 3 to 16 carbon atoms) with known log P values. The values between successive alkanones are determined by linear regression.

[2] = test system: green peach aphid (Myzus persicae); assay: Myzus persicae spray test; assay type: in vivo; conditions: foliar, 120 h, after 5 days, Chinese cabbage leaf disks, read-out: efficacy in %
Method: Myzus Persicae—Spray Test
(§1) • Solvent: 78 parts by weight of acetone • 1.5 parts by weight of dimethylformamide • Emulsifier: alkylaryl polyglycol ether
(§2) To produce a suitable active compound formulation, 1 part by weight of active compound is dissolved using the stated parts by weight of solvent and made up with water containing an emulsifier concentration of 1000 ppm until the desired concentration is attained. To produce further test concentrations, the formulation is diluted with emulsifier-containing water.
Disks of Chinese cabbage leaves (Brassica pekinensis) infested by all stages of the green peach aphid (Myzus persicae) are sprayed with an active compound formulation of the desired concentration.
After 5 days, the efficacy in % is determined. 100% means that all the aphids have been killed; 0% means that no aphids have been killed.

[3] = test system: green peach aphids (Myzus persicae); assay: Myzus persicae oral test; assay type: in vivo; conditions: 120 h, after 5 days, read-out: efficacy in %
Method: Myzus Persicae—Oral Test • Solvent: 100 parts by weight of acetone To produce a suitable active compound formulation, 1 part by weight of active compound is dissolved using the specified parts by weight of solvent and made up with water until the desired concentration is attained. 50 μl of the active compound preparation are transferred into microtitre plates and made up to a final volume of 200 μl with 150 μl of IPL41 insect medium (33%+15% sugar). Subsequently, the plates are sealed with parafilm, which a mixed population of green peach aphids (Myzus persicae) within a second microtitre plate is able to puncture and imbibe the solution through. After 5 days, the efficacy in % is determined. 100% means that all the aphids have been killed; 0% means that no aphids have been killed.

[4] = test system: mustard beetle Phaedon cochleariae; assay: Phaedon cochleariae spray test; assay type: in vivo; conditions: 100 g/ha; after 7 days; Chinese cabbage leaf disks, larvae
Method: Phaedon Cochleariae—Spray Test
(§3) • Solvent: 78.0 parts by weight of acetone • 1.5 parts by weight of dimethylformamide • Emulsifier: alkylaryl polyglycol ether
as §2
Disks of Chinese cabbage leaves (Brassica pekinensis) are sprayed with an active compound formulation of the desired concentration and, after drying, populated with larvae of the mustard beetle Phaedon cochleariae).
After 7 days, the efficacy in % is determined. 100% means that all the beetle larvae have been killed; 0% means that no beetle larvae have been killed.

[5] = test system: fall armyworm (Spodoptera frugiperda); assay: Spodoptera frugiperda spray test; assay type: in vivo; conditions: foliar, 168 h, after 7 days, corn leaf disks, caterpillars, read-out: efficacy in %
Method: Spodoptera Fruaiperda—Spray Test
as §3, §2
Leaf disks of corn (Zea mays) are sprayed with an active compound formulation of the desired concentration and, after drying, populated with caterpillars of the fall armyworm (Spodoptera frugiperda).
After 7 days, the efficacy in % is determined. 100% means that all the caterpillars have been killed; 0% means that no caterpillar has been killed.

[6] = test system: green peach aphid (Myzus persicae); assay: Comparative experiment: Myzus persicae spray test (MYZUPE); assay type: in vivo; conditions: 120 h, 5 dat, read-out: % efficacy; for Emax at 4 g/ha: 4 g of ai/ha; for Emax at 20 g/ha: 20 g of ai/ha; for Emax at 100 g/ha: 100 g of ai/ha
Method: Myzus Persicae—Spray Test (MYZUPE)
as §3, §2
Disks of Chinese cabbage leaves (Brassica pekinensis) infested by all stages of the green peach aphid (Myzus persicae) are sprayed with an active compound preparation of the desired concentration.
After the desired period of time, the efficacy in % is determined. 100% means that all the aphids have been killed; 0% means that no aphids have been killed.

[7] = test system: mustard beetle (Phaedon cochleariae); assay: Comparative experiment: Phaedon cochleariae spray test (PHAECO); assay type: in vivo; conditions: 168 h, 7 dat, read-out: % efficacy; for Emax at 4 g/ha: 4 g of ai/ha; for Emax at 20 g/ha: 20 g of ai/ha
Method: Phaedon Cochleariae—Spray Test (PHAECO)
as §3, §2
Disks of Chinese cabbage leaves (Brassica pekinensis) are sprayed with an active compound formulation of the desired concentration and, after drying, populated with larvae of the mustard beetle (Phaedon cochleariae).
After the desired period of time, the efficacy in % is determined. 100% means that all the beetle larvae have been killed; 0% means that no beetle larvae have been killed.

[8] = test system: armyworm (Spodoptera frugiperda); assay: Comparative experiment: Spodoptera frugiperda spray test (SPODFR); assay type: in vivo; conditions: 168 h, 7 dat, read-out: % efficacy; for Emax at 0.8 g/ha: 0.8 g of ai/ha; for Emax at 4 g/ha: 4 g of ai/ha; for Emax at 20 g/ha: 20 g of ai/ha
Method: Spodoptera Fruaiperda—Spray Test (SPODFR)
as §3, §2
Leaf disks of corn (Zea mays) are sprayed with an active compound formulation of the desired concentration and, after drying, populated with caterpillars of the armyworm (Spodoptera frugiperda).
After the desired period of time, the efficacy in % is determined. 100% means that all the caterpillars have been killed; 0% means that no caterpillar has been killed.

[9] = test system: Diabrotica balteata; assay: Diabrotica balteata spray test; assay type: in vivo; conditions: topical, 168 h, 100 g/ha (=32 μg/cavity), after 7 days, sprayed germinated wheat grains, beetle larvae, read-out: efficacy in %
Method: Diabrotica balteata—Spray Test
as §1, §2
Pre-swollen wheat grains (Triticum aestivum) are incubated in a multiwell plate filled with agar and a little water for one day (5 seed grains per cavity). The germinated wheat grains are sprayed with an active compound formulation of the desired concentration. Subsequently, each cavity is infected with 10−20 beetle larvae of Diabrotica balteata.
After 7 days, the efficacy in % is determined. 100% means that all wheat plants have grown as in the untreated, uninfected control; 0% means that no wheat plant has grown.

[10] = test system: greenhouse red spider mite (Tetranychus urticae); assay: Tetranychus urticae spray test, OP-resistant; assay type: in vivo; conditions: 100 g/ha, after 6 days, bean leaf disks
Method: Tetranychus Urticae—Spray Test, OP-Resistant
as §3, §2
Disks of bean leaves (Phaseolus vulgaris) infested with all stages of the greenhouse red spider mite (Tetranychus urticae) are sprayed with an active compound formulation of the desired concentration.
After 6 days, the efficacy in % is determined. 100% means that all the spider mites have been killed; 0% means that no spider mites have been killed.

Row | Compound | pest or weed control at 100 g/ha [2] [%] | pest or weed control at 0.8 ppm [3] [%] | pest or weed control at 4 ppm [3] [%] | pest or weed control at 100 g/ha [5] [%] | pest or weed control at 100 g/ha [9] [%] | further results
1 | CCSc1c(-c2nc3cc(C(F)(F)F)cnc3n2C)ncc2cc(C3(C#N)CC3)ccc12 [1-[4-Ethylsulfanyl-3-[3-methyl-6-(trifluoromethyl)imidazo[4,5-b]pyridin-2-yl]-7-isoquinolyl]cyclopropanecarbonitrile] | – | – | – | – | – | chromatographic logP [1]: 3.67
2 | CCSc1c(-c2nc3cc(C(F)(F)F)cnc3n2C)ncc2cc(CC#N)ccc12 [2-[4-Ethylsulfanyl-3-[3-methyl-6-(trifluoromethyl)imidazo[4,5-b]pyridin-2-yl]-7-isoquinolyl]acetonitrile] | – | – | – | – | – | chromatographic logP [1]: 3.22
3 | CCSc1c(-c2nc3cc(C(F)(F)F)cnc3n2C)ncc2cc(Br)ccc12 [7-Bromo-4-ethylsulfanyl-3-[3-methyl-6-(trifluoromethyl)imidazo[4,5-b]pyridin-2-yl]isoquinoline] | – | – | – | – | – | chromatographic logP [1]: 4.36
4 | CCS(=O)(=O)c1c(-c2nc3cc(C(F)(F)F)cnc3n2C)ncc2cc(C3(C#N)CC3)ccc12 [Example I-1, 1-[4-Ethylsulfonyl-3-[3-methyl-6-(trifluoromethy)imidazo[4,5-b]pyridin-2-yl]-7-isoquinolyl]cyclopropanecarbonitrile] | 90 | 90 | 100 | 100 | – | efficacy in % [4]: 100%; Emax at 4 g/ha [6]: 70%; Emax at 20 g/ha [6]: 90%; Emax at 100 g/ha [6]: 90%; Emax at 4 g/ha [7]: 100%; Emax at 20 g/ha [7]: 100%; Emax at 0.8 g/ha [8]: 83%; Emax at 4 g/ha [8]: 100%; Emax at 20 g/ha [8]: 100%; chromatographic logP [1]: 3.02
5 | CCS(=O)(=O)c1c(-c2nc3cc(C(F)(F)F)ncc3n2C)ncc2cc(C3(C#N)CC3)ccc12 [Example I-2] | 90 | 90 | 100 | 100 | 100 | –
6 | CCS(=O)(=O)c1c(-c2nc3cc(C(F)(F)C(F)(F)F)ccc3o2)ncc2cc(C3(C#N)CC3)ccc12 [Example I-3] | – | – | – | 100 | 100 | –
7 | CCS(=O)(=O)c1c(-c2nc3cc(C(F)(F)C(F)(F)F)cnc3n2C)ncc2cc(C3(C#N)CC3)ccc12 [Example I-4] | 100 | 100 | 100 | 100 | 100 | –
8 | CCS(=O)(=O)c1c(-c2nc3cc(OC(F)(F)C(F)(F)F)cnc3n2C)ncc2cc(C3(C#N)CC3)ccc12 [Example I-5] | 90 | – | 100 | 100 | – | –
9 | CCS(=O)(=O)c1c(-c2nc3cc(C(F)(F)F)ccc3n2C)ncc2cc(C3(C#N)CC3)ccc12 [Example I-6] | 90 | – | 100 | 100 | 100 | –
10 | CCS(=O)(=O)c1c(-c2nc3cc(S(=O)(=O)C(F)(F)F)ccc3o2)ncc2cc(C3(C#N)CC3)ccc12 [Example I-7] | – | – | – | 100 | 100 | –
11 | CCS(=O)(=O)c1c(-c2nc3cc(OC(F)(F)F)ccc3o2)ncc2cc(C3(C#N)CC3)ccc12 [Example I-8] | – | – | – | 100 | 100 | –
12 | CCS(=O)(=O)c1c(-c2nc3cc(C(F)(F)F)nnc3n2C)ncc2cc(C3(C#N)CC3)ccc12 [Example I-9] | 90 | 90 | – | 100 | 100 | efficacy in % [10]: 90%
13 | CCS(=O)(=O)c1c(-c2nc3cc(C(F)(F)C(F)(F)F)nnc3n2C)ncc2cc(C3(C#N)CC3)ccc12 [Example I-10] | 100 | 90 | – | 100 | 100 | –
14 | CCS(=O)(=O)c1c(-c2nc3cc(OC(F)(F)F)cnc3n2C)ncc2cc(C3(C#N)CC3)ccc12 [Example I-11] | 100 | 100 | 100 | 100 | 100 | –
15 | CCS(=O)(=O)c1c(-c2nc3cc(OC(F)(F)F)ccc3n2C)ncc2cc(C3(C#N)CC3)ccc12 [Example I-12] | 100 | 90 | 100 | 100 | 100 | –
16 | CCS(=O)(=O)c1c(-c2nc3cc(C(F)(F)C(F)(F)F)ncc3n2C)ncc2cc(C3(C#N)CC3)ccc12 [Example I-13] | 100 | 100 | 100 | 100 | 100 | –
17 | CCS(=O)(=O)c1c(-c2nc3cc(C(F)(F)C(F)F)cnc3n2C)ncc2cc(C3(C#N)CC3)ccc12 [Example I-14] | 100 | 100 | 100 | 100 | 100 | –
18 | CCS(=O)(=O)c1c(-c2nc3cc(C(F)(F)F)cnc3n2C)ncc2ccccc12 [I′-47, reference compound] | – | – | – | – | – | Emax at 4 g/ha [7]: 0%; Emax at 20 g/ha [7]: 67%; Emax at 0.8 g/ha [8]: 0%; Emax at 4 g/ha [8]: 33%; Emax at 20 g/ha [8]: 67%
19 | CCS(=O)(=O)c1c(-c2nc3cc(C(F)(F)F)cnc3n2C)ncc2cc(C(F)(F)F)ccc12 [I′-51, reference compound] | – | – | – | – | – | Emax at 4 g/ha [6]: 0%; Emax at 20 g/ha [6]: 0%; Emax at 100 g/ha [6]: 90%
